Measurements as given in US20200339691A1, “PROTEINACEOUS MOLECULES AND USES THEREFOR” (priority 2018, published 2020).
Where a SMILES comes first, the peptide text is derived from it. [ ]: non-standard residue; d: D form. The star is where a group is joined. Myristoyl = CCCCCCCCCCCCCC(=O)*; Orn = NCCC[C@H](N)C(=O)O

What was measured:
MDA-MB-231 cells = type: cell-based, human; details: 50 μM peptide, 48 hours, n = 1
Excerpt: (§1) Non-adherent cells were removed during the washing steps.

[1] = test system: CD44^hiCD24^lo CSCs in MDA-MB-231 cells; test: FACS analysis of CD44^hiCD24^lo cancer stem cells in MDA-MB-231 cells treated with P1 analogues; type: cell-based, human; details: 50 μM peptide, 48 hours; for CD44^hiCD24^lo CSCs (%) / COI, Live Single CD44^hiCD24^lo CSCs (Cell Count): n = 1; for Average Inhibition of CSCs (%) / CD44^hiCD24^lo CSCs (%) Repeat 1 / CD44^hiCD24^lo CSCs (%) Repeat 2 / CD44^hiCD24^lo CSCs (%) Repeat 3: n = 3
Procedure: Analogues of P1 (Table 6) were designed and synthesized in accordance with the procedure of Example 5. The ability of these analogues to inhibit cancer stem cells was determined using FACS analysis on MDA-MB-231 cells, which constitutively contain approximately 90% CD44^hiCD24^lo cancer stem cells, treated with the peptides.
as §1
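Wherever COI, Live Single Cells (Cell Count) is given: live means Hoechst-negative events among single cells.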

CCCCCCCCCCCCCC(=O)N[C@@H](CC(C)C)C(=O)N[C@H](C(=O)N[C@@H](Cc1ccccc1)C(=O)N[C@@H](CCCCN)C(=O)N[C@@H](Cc1ccccc1)C(=O)N[C@@H](CCCNC(=N)N)C(=O)N[C@@H](CC(C)C)C(=O)N[C@@H](CCCNC(=N)N)C(=O)N[C@@H](CCCCN)C(=O)NCC(=O)N[C@@H](CCCNC(=N)N)C(=O)N[C@@H](CCSC)C(=O)N[C@@H](CCSC)C(=O)N[C@@H](CC(=O)O)C(=O)N[C@H](C(=O)N[C@@H](CCCCN)C(=O)N[C@@H](CCCCN)C(N)=O)C(C)C)[C@@H](C)O [Peptide 2853811, Myristoyl-LTFKFRLRKGRMMDVKK-NH2] (Myristoyl-LTFKFRLRKGRMMDVKK-NH2)
COI (Cell Count) (MDA-MB-231 cells): 79 | COI, Live Single Cells (Cell Count) (MDA-MB-231 cells): 64 | COI, Single (Cell Count) (MDA-MB-231 cells): 69 | Total Cell Count (MDA-MB-231 cells): 1274 | Inhibition of CSCs (%) Repeat 1 [1]: 57.93% | Inhibition of CSCs (%) Repeat 2 [1]: 62.10% | Inhibition of CSCs (%) Repeat 3 [1]: 67.22% | CD44^hiCD24^lo CSCs (%) [1]: 39.06% | COI, Live Single CD44^hiCD24^lo CSCs (Cell Count) [1]: 25 | Average Inhibition of CSCs (%) [1]: 62.42% | CD44^hiCD24^lo CSCs (%) Repeat 1 [1]: 37.70% | CD44^hiCD24^lo CSCs (%) Repeat 2 [1]: 34.00% | CD44^hiCD24^lo CSCs (%) Repeat 3 [1]: 29.41%

CCCCCCCCCCCCCC(=O)N[C@H](C(=O)N[C@@H](Cc1ccccc1)C(=O)N[C@@H](C)C(=O)N[C@@H](Cc1ccccc1)C(=O)N[C@@H](CCCNC(=N)N)C(=O)N[C@@H](CC(C)C)C(=O)N[C@@H](CCCNC(=N)N)C(=O)N[C@@H](CCCCN)C(=O)NCC(=O)N[C@@H](CCCNC(=N)N)C(=O)N[C@@H](CCSC)C(=O)N[C@@H](CCSC)C(=O)N[C@@H](CC(=O)O)C(=O)N[C@H](C(=O)N[C@@H](CCCCN)C(=O)N[C@@H](CCCCN)C(N)=O)C(C)C)[C@@H](C)O [Peptide 2815304, Myristoyl-TFAFRLRKGRMMDVKK-NH2] (Myristoyl-TFAFRLRKGRMMDVKK-NH2)
COI (Cell Count) (MDA-MB-231 cells): 157 | COI, Live Single Cells (Cell Count) (MDA-MB-231 cells): 122 | COI, Single (Cell Count) (MDA-MB-231 cells): 137 | Total Cell Count (MDA-MB-231 cells): 4317 | Inhibition of CSCs (%) Repeat 1 [1]: 43.62% | Inhibition of CSCs (%) Repeat 2 [1]: 47.79% | Inhibition of CSCs (%) Repeat 3 [1]: 51.20% | CD44^hiCD24^lo CSCs (%) [1]: 68.03% | COI, Live Single CD44^hiCD24^lo CSCs (Cell Count) [1]: 83 | Average Inhibition of CSCs (%) [1]: 47.54% | CD44^hiCD24^lo CSCs (%) Repeat 1 [1]: 50.53% | CD44^hiCD24^lo CSCs (%) Repeat 2 [1]: 46.84% | CD44^hiCD24^lo CSCs (%) Repeat 3 [1]: 43.79%

CCCCCCCCCCCCCC(=O)N[C@@H](CC(C)C)C(=O)N[C@H](C(=O)N[C@@H](Cc1ccccc1)C(=O)N[C@H](C(=O)N[C@@H](Cc1ccccc1)C(=O)N[C@@H](CCCNC(=N)N)C(=O)N[C@@H](CC(C)C)C(=O)N[C@@H](CCCNC(=N)N)C(=O)N[C@@H](CCCCN)C(=O)NCC(=O)N[C@@H](CCCNC(=N)N)C(=O)N[C@@H](CCSC)C(=O)N[C@@H](CCSC)C(=O)N[C@@H](CC(=O)O)C(=O)N[C@H](C(=O)N[C@@H](CCCCN)C(=O)N[C@@H](CCC(=O)O)C(N)=O)C(C)C)[C@@H](C)CC)[C@@H](C)O [Peptide 2853845, Myristoyl-LTFIFRLRKGRMMDVKE-NH2] (Myristoyl-LTFIFRLRKGRMMDVKE-NH2)
COI (Cell Count) (MDA-MB-231 cells): 4600 | COI, Live Single Cells (Cell Count) (MDA-MB-231 cells): 4012 | COI, Single (Cell Count) (MDA-MB-231 cells): 4111 | Total Cell Count (MDA-MB-231 cells): 5598 | Inhibition of CSCs (%) Repeat 1 [1]: 15.69% | Inhibition of CSCs (%) Repeat 2 [1]: 19.72% | Inhibition of CSCs (%) Repeat 3 [1]: 17.64% | CD44^hiCD24^lo CSCs (%) [1]: 65.10% | COI, Live Single CD44^hiCD24^lo CSCs (Cell Count) [1]: 2612 | Average Inhibition of CSCs (%) [1]: 17.69% | CD44^hiCD24^lo CSCs (%) Repeat 1 [1]: 75.56% | CD44^hiCD24^lo CSCs (%) Repeat 2 [1]: 72.02% | CD44^hiCD24^lo CSCs (%) Repeat 3 [1]: 73.91%

CCCCCCCCCCCCCC(=O)N[C@@H](CC(C)C)C(=O)N[C@H](C(=O)N[C@@H](Cc1ccccc1)C(=O)N[C@H](C(=O)N[C@@H](Cc1ccccc1)C(=O)N[C@@H](CCCNC(=N)N)C(=O)N[C@@H](CC(C)C)C(=O)N[C@@H](CCCNC(=N)N)C(=O)N[C@@H](CCCCN)C(=O)NCC(=O)N[C@@H](CCCNC(=N)N)C(=O)N[C@@H](CCSC)C(=O)N[C@@H](CCSC)C(=O)N[C@@H](CCCCN)C(=O)N[C@H](C(=O)N[C@@H](CCCCN)C(=O)N[C@@H](CCCCN)C(N)=O)C(C)C)[C@@H](C)CC)[C@@H](C)O [Peptide 2853836, Myristoyl-LTFIFRLRKGRMMKVKK-NH2] (Myristoyl-LTFIFRLRKGRMMKVKK-NH2)
COI (Cell Count) (MDA-MB-231 cells): 761 | COI, Live Single Cells (Cell Count) (MDA-MB-231 cells): 86 | COI, Single (Cell Count) (MDA-MB-231 cells): 547 | Total Cell Count (MDA-MB-231 cells): 5448 | Inhibition of CSCs (%) Repeat 1 [1]: 88.84% | Inhibition of CSCs (%) Repeat 2 [1]: 82.17% | Inhibition of CSCs (%) Repeat 3 [1]: 86.35% | CD44^hiCD24^lo CSCs (%) [1]: 9.30% | COI, Live Single CD44^hiCD24^lo CSCs (Cell Count) [1]: 8 | Average Inhibition of CSCs (%) [1]: 85.79% | CD44^hiCD24^lo CSCs (%) Repeat 1 [1]: 10.00% | CD44^hiCD24^lo CSCs (%) Repeat 2 [1]: 16.00% | CD44^hiCD24^lo CSCs (%) Repeat 3 [1]: 12.24%

CCCCCCCCCCCCCC(=O)N[C@@H](CC(C)C)C(=O)N[C@H](C(=O)N[C@@H](Cc1ccccc1)C(=O)N[C@H](C(=O)N[C@@H](Cc1ccccc1)C(=O)N[C@@H](CCCNC(=N)N)C(=O)N[C@@H](CC(C)C)C(=O)N[C@@H](CCCNC(=N)N)C(=O)N[C@@H](CCCNC(C)=O)C(=O)NCC(=O)N[C@@H](CCCNC(=N)N)C(=O)N[C@@H](CCSC)C(=O)N[C@@H](CCSC)C(=O)N[C@@H](CC(=O)O)C(=O)N[C@H](C(=O)N[C@@H](CCCCN)C(=O)N[C@@H](CCCCN)C(N)=O)C(C)C)[C@@H](C)CC)[C@@H](C)O [Peptide 2853826, Myristoyl-LTFIFRLROrn(Ac)GRMMDVKK-NH2] (Myristoyl-LTFIFRLR[Orn](Ac)GRMMDVKK-NH2)
COI (Cell Count) (MDA-MB-231 cells): 554 | COI, Live Single Cells (Cell Count) (MDA-MB-231 cells): 160 | COI, Single (Cell Count) (MDA-MB-231 cells): 433 | Total Cell Count (MDA-MB-231 cells): 3961 | Inhibition of CSCs (%) Repeat 1 [1]: 86.74% | Inhibition of CSCs (%) Repeat 2 [1]: 80.33% | Inhibition of CSCs (%) Repeat 3 [1]: 87.62% | CD44^hiCD24^lo CSCs (%) [1]: 3.13% | COI, Live Single CD44^hiCD24^lo CSCs (Cell Count) [1]: 5 | Average Inhibition of CSCs (%) [1]: 84.90% | CD44^hiCD24^lo CSCs (%) Repeat 1 [1]: 11.88% | CD44^hiCD24^lo CSCs (%) Repeat 2 [1]: 17.65% | CD44^hiCD24^lo CSCs (%) Repeat 3 [1]: 11.11%

CCCCCCCCCCCCCC(=O)N[C@H](C(=O)N[C@@H](C)C(=O)N[C@H](C(=O)N[C@@H](Cc1ccccc1)C(=O)N[C@@H](CCCNC(=N)N)C(=O)N[C@@H](CC(C)C)C(=O)N[C@@H](CCCNC(=N)N)C(=O)N[C@@H](CCCCN)C(=O)NCC(=O)N[C@@H](CCCNC(=N)N)C(=O)N[C@@H](CCSC)C(=O)N[C@@H](CCSC)C(=O)N[C@@H](CC(=O)O)C(=O)N[C@H](C(=O)N[C@@H](CCCCN)C(=O)N[C@@H](CCCCN)C(N)=O)C(C)C)[C@@H](C)CC)[C@@H](C)O [Peptide 2815303, Myristoyl-TAIFRLRKGRMMDVKK-NH2] (Myristoyl-TAIFRLRKGRMMDVKK-NH2)
COI (Cell Count) (MDA-MB-231 cells): 18 | COI, Live Single Cells (Cell Count) (MDA-MB-231 cells): 8 | COI, Single (Cell Count) (MDA-MB-231 cells): 17 | Total Cell Count (MDA-MB-231 cells): 10195 | Inhibition of CSCs (%) Repeat 1 [1]: 76.31% | Inhibition of CSCs (%) Repeat 2 [1]: 81.14% | Inhibition of CSCs (%) Repeat 3 [1]: 80.95% | CD44^hiCD24^lo CSCs (%) [1]: 25.00% | COI, Live Single CD44^hiCD24^lo CSCs (Cell Count) [1]: 2 | Average Inhibition of CSCs (%) [1]: 79.47% | CD44^hiCD24^lo CSCs (%) Repeat 1 [1]: 21.23% | CD44^hiCD24^lo CSCs (%) Repeat 2 [1]: 16.92% | CD44^hiCD24^lo CSCs (%) Repeat 3 [1]: 17.09%

CCCCCCCCCCCCCC(=O)N[C@H](C(=O)N[C@@H](Cc1ccccc1)C(=O)N[C@H](C(=O)N[C@@H](Cc1ccccc1)C(=O)N[C@@H](CCCNC(=N)N)C(=O)N[C@@H](CC(C)C)C(=O)N[C@@H](CCCNC(=N)N)C(=O)N[C@@H](CCCCN)C(=O)NCC(=O)N[C@@H](CCCNC(=N)N)C(=O)N[C@@H](CCSC)C(=O)N[C@@H](CCSC)C(=O)N[C@@H](CC(=O)O)C(=O)N[C@@H](C)C(=O)N[C@@H](CCCCN)C(=O)N[C@@H](CCCCN)C(N)=O)[C@@H](C)CC)[C@@H](C)O [Peptide 2815315, Myristoyl-TFIFRLRKGRMMDAKK-NH2] (Myristoyl-TFIFRLRKGRMMDAKK-NH2)
COI (Cell Count) (MDA-MB-231 cells): 51 | COI, Live Single Cells (Cell Count) (MDA-MB-231 cells): 16 | COI, Single (Cell Count) (MDA-MB-231 cells): 41 | Total Cell Count (MDA-MB-231 cells): 12122 | Inhibition of CSCs (%) Repeat 1 [1]: 86.74% | Inhibition of CSCs (%) Repeat 2 [1]: 82.99% | Inhibition of CSCs (%) Repeat 3 [1]: 83.97% | CD44^hiCD24^lo CSCs (%) [1]: 18.75% | COI, Live Single CD44^hiCD24^lo CSCs (Cell Count) [1]: 3 | Average Inhibition of CSCs (%) [1]: 84.57% | CD44^hiCD24^lo CSCs (%) Repeat 1 [1]: 11.89% | CD44^hiCD24^lo CSCs (%) Repeat 2 [1]: 15.26% | CD44^hiCD24^lo CSCs (%) Repeat 3 [1]: 14.39%
